According to patent US20070197654A1, “COMBINATION OF A CB1 RECEPTOR ANTAGONIST AND OF A PRODUCT WHICH ACTIVATES DOPAMINERGIC NEUROTRANSMISSION IN THE BRAIN, THE PHARMACEUTICAL COMPOSITIONS COMPRISING THEM AND THEIR USE IN THE TREATMENT OF PARKINSON'S DISEASE” (AVENTIS PHARMA S.A., priority 2001, published 2007):
Marks after values point to notes of the source that are not given here.

Key:
Type in all cases: in vivo
Reserpine-treated rats [1] = assay: Reserpine-induced akinesia in the rat: locomotor activity, CB1 antagonist po combined with quinpirole; settings: locomotion recorded 1 hour
Experimental: (§1) The synergistic effect of the combination of one or more products which activate dopaminergic neurotransmission in the brain and of one or more CB1 antagonists in the treatment of Parkinson's disease was determined in a model of akinesia induced by reserpine in the rat according to the following protocol:
(§2) Male Sprague-Dawley rats were treated with reserpine administered subcutaneously at a dose of 3 mg/kg (1 ml/kg) in order to induce akinesia in the animal. 18 hours after this treatment, the locomotor activity of these animals was measured and recorded using an automatic system (Videotrack, France). The locomotion, expressed in centimeters, is estimated by a mean overall distance covered during this period (n=11-38 rats per group). The statistical analysis is carried out by variance analysis and a post-hoc comparison (if appropriate) using a Mann-Whitney or Dunnett test. A significant effect is recorded for p<0.05.
(§3) The studies by the oral route are carried out in a hydrophobic formulation solvent Labrafil/Labrasol (40/60%, w/w). These products are administered (in a volume of 1 ml/kg) one hour before the dopaminergic agonist. The recording of the locomotor activity begins 5 min after the intraperitoneal injection of the dopaminergic agonist and lasts 1 hour. The D1 dopaminergic agonist is 0.3 mg/kg C1-APB. The D2 dopaminergic agonist is 0.1 mg/kg quinpirole.
(§4) The results for the po administration of the CB1 antagonist at three different doses (1, 3 and 10 mg/kg/po) (Table 2) are expressed as percentage of increase with respect to the activity of quinpirole and a percentage of decrease with respect to the activity of a strong dose of C1-APB (SKF 82958).

Reserpine-treated rats [2] = assay: Reserpine-treated rat, dyskinesia model: locomotor activity, CB1 antagonist ip combined with strong dose of levodopa; settings: CB1 antagonist 1 mg/kg i.p.; levodopa 120 mg/kg + benserazide 50 mg/kg i.p.; locomotion recorded 2.5 hours
Experimental: as §1, §2
(§5) The results for the ip administration of the CB1 antagonist (Table 1) are expressed as percentage of increase with respect to the activity of quinpirole and as percentage of decrease with respect to the activity of a very strong dose of levodopa.
The combination of the CB1 receptor antagonist and of a strong dose of levodopa (dyskinesia model) is produced in the following way: […]

Reserpine-treated rats [3] = assay: Reserpine-induced akinesia in the rat: locomotor activity, CB1 antagonist ip combined with quinpirole; settings: CB1 antagonist 1 mg/kg i.p., locomotion recorded 1 hour
Experimental: as §1, §2, §5
The combination of a CB1 receptor antagonist and of a D2 dopaminergic agonist (quinpirole) is produced in the following way: […]

Reserpine-treated rats [4] = assay: Reserpine-treated rat: locomotor activity, CB1 antagonist po combined with strong dose of C1-APB (SKF 82958); settings: locomotion recorded 1 hour
Experimental: as §1, §2, §3, §4

For `Cc1c(C(=O)NN2CCCCC2)nn(-c2ccc(Cl)cc2Cl)c1-c1ccc(Cl)cc1.Cl` [SR141716A, N-(piperidin-1-yl)-5-(4-chlorophenyl)-1-(2,4-dichlorophenyl)-4-methyl-1H-pyrazole-3-carboxamide hydrochloride], the “Combination with quinpirole (0.1 mg/kg ip): percentage of increase with respect to the activity of quinpirole” value (Reserpine-treated rats [1]; CB1 antagonist 1 mg/kg po one hour before quinpirole) was “+57%* NS”, the “Combination with quinpirole (0.1 mg/kg ip): percentage of increase with respect to the activity of quinpirole” value (Reserpine-treated rats [1]; CB1 antagonist 3 mg/kg po one hour before quinpirole) was “+121%**” and the “Combination with quinpirole (0.1 mg/kg ip): percentage of increase with respect to the activity of quinpirole” value (Reserpine-treated rats [1]; CB1 antagonist 10 mg/kg po one hour before quinpirole) was “+87%**”. The “Combination with levodopa (120 mg/kg ip): percentage of decrease with respect to the activity of a very strong dose of levodopa” value (Reserpine-treated rats [2]) was −61%*, the “Combination with quinpirole (62.5 μg/kg ip): percentage of increase with respect to the activity of quinpirole” value (Reserpine-treated rats [3]) was “+116%***” and the “Combination with C1-APB (0.3 mg/kg ip): percentage of decrease with respect to the activity of a strong dose of C1-APB” value (Reserpine-treated rats [4]; CB1 antagonist 1 mg/kg po one hour before C1-APB) was −32% NS. The “Combination with C1-APB (0.3 mg/kg ip): percentage of decrease with respect to the activity of a strong dose of C1-APB” value (Reserpine-treated rats [4]; CB1 antagonist 3 mg/kg po one hour before C1-APB) was −58%* and the “Combination with C1-APB (0.3 mg/kg ip): percentage of decrease with respect to the activity of a strong dose of C1-APB” value (Reserpine-treated rats [4]; CB1 antagonist 10 mg/kg po one hour before C1-APB) was −82%**.
